The results in this text go back to ChEMBL document CHEMBL1146296, “Influence of an additional 2-amino substituent of the 1-aminoethyl pharmacophore group on the potency of rimantadine against influenza virus A” (Bioorg Med Chem Lett, 2007).

Each structure is given as a SMILES string. Activity calls are given as the source filed them. The calls are words filed in the database; no cut-off is given here.

Series [1] deals with Influenza A virus. As to the kind of experiment: Antiviral activity against influenza A virus (H3N2)-induced cytopathogenicity in MDCK cells by MTS method. Type of series: functional, organism-based. On the technique in general: Damage to the host cells serves as the signal in cytopathic effect assays.
For series [2], the system named is MDCK. Nature of the series: Cytotoxicity against MDCK cells. Type of series: cell-based, Canis lupus familiaris. The following applies: dog.
Series [3] has as its system Influenza B virus. As to the kind of experiment: Antiviral activity against influenza B virus. Format: functional, organism-based.
Series [4] relates to Influenza A virus. As to the kind of experiment: Antiviral activity against influenza A virus (H3N2) assessed as inhibition of viral replication. Format: functional, organism-based.

As to `C1CCC(C23CC4CC(CC(C4)C2)C3)NC1.Cl` (stereo not drawn), a half-maximal response in series [1] (EC50) required 70.5 µM. In series [2], this compound came in with an MTC of 978 µM.

Compound `C1CNC(C23CC4CC(CC(C4)C2)C3)C1.Cl` (stereo not drawn) came in with an EC50 in series [1] of 51.3 µM. The compound also came in with an MTC in series [2] of 1035 µM.

In series [1], `CN1CC(=O)NCC1C12CC3CC(CC(C3)C1)C2` (stereo not drawn) gave an EC50 of 604 µM. Besides, in series [3], the result was inactive. For the same compound, the MTC in series [2] was over 1007 µM.

Consider `O=C1CNC(C23CC4CC(CC(C4)C2)C3)CN1` (stereo not drawn), for which the outcome in series [4] was Active. For the same compound, the half-maximal effective concentration (EC50) in series [1] worked out at 91.8 µM. The outcome in series [3] was inactive. This compound showed an MTC in series [2] of over 1067 µM.

In series [1], `Cl.NC12CC3CC(CC(C3)C1)C2` [AMANTADINE HYDROCHLORIDE] returned an EC50 of 49.1 µM. Moreover, the MTC in series [2] is over 1333 µM.

`CN1CCNCC1C12CC3CC(CC(C3)C1)C2.O=C(O)/C=C\C(=O)O` (stereo not drawn) had an EC50 in series [1] of 197 µM. The result in series [3] was inactive. The compound further showed an MTC in series [2] of over 535 µM.

The compound `CN1CCN(C)C(C23CC4CC(CC(C4)C2)C3)C1.O=C(O)/C=C\C(=O)O` (stereo not drawn) showed an EC50 in series [1] of 351 µM. For the same compound, the outcome in series [3] was inactive. The MTC in series [2] was over 520 µM.

As to `C1CNC(C23CC4CC(CC(C4)C2)C3)CN1.O=C(O)/C=C\C(=O)O` (stereo not drawn), in series [4], the outcome was Active. In series [1], this compound registered an EC50 of 24.1 µM. Also, the outcome in series [3] was inactive. The compound also returned an MTC in series [2] of over 553 µM.

On to `O=C1NCC(C23CC4CC(CC(C4)C2)C3)N1` (stereo not drawn), for which the result in series [4] was Active. This compound yielded a concentration for a half-maximal effect (EC50) in series [1] of 72.6 µM. Also, the result in series [3] was inactive. In series [2], this compound gave an MTC of over 1135 µM.

In turn, `CN1C(=O)NCC1C12CC3CC(CC(C3)C1)C2` (stereo not drawn) registered an EC50 in series [1] of 269 µM. In addition, in series [3], the result was inactive. Besides, in series [2], the MTC was over 1067 µM.

For the compound `NCC(N)C12CC3CC(CC(C3)C1)C2.O=C(O)/C=C\C(=O)O` (stereo not drawn), the outcome in series [4] was Active. The EC50 in series [1] was 18.3 µM. Moreover, the result in series [3] was inactive. In series [2], this compound had an MTC of over 586 µM.

Consider `CN1CC(C23CC4CC(CC(C4)C2)C3)N(C)C1=O` (stereo not drawn), for which the EC50 in series [1] turned out to be 107 µM. Also, in series [3], the outcome was inactive. For the same compound, the MTC in series [2] stood at 1007 µM.

As for `CNC(CN)C12CC3CC(CC(C3)C1)C2.O=C(O)/C=C\C(=O)O` (stereo not drawn), in series [4], the outcome was Active. This compound also returned an EC50 in series [1] of 56.8 µM. Also, the outcome in series [3] was inactive. Moreover, in series [2], the MTC was over 568 µM.

`CC(N)C12CC3CC(CC(C3)C1)C2.Cl` (stereo not drawn) [RIMANTADINE HYDROCHLORIDE] displayed an EC50 in series [1] of 19.1 µM. In series [2], the MTC was over 1160 µM.

As a reminder, the EC50 is the concentration at which the effect is half-maximal. A lower EC50 goes with greater potency.
